According to ChEMBL document CHEMBL1909046, “DrugMatrix in vitro pharmacology data”:
pIC50, pKi: −log10 of the molar value.

Experiments:
[1] = target: T1, Alpha-2C adrenergic receptor (Homo sapiens, UniProt P18825); test: DRUGMATRIX: Adrenergic Alpha-2C radioligand binding (ligand: [3H] MK-912); assay type: cell membranes, Sf9, Membrane; conditions: sf9
T1 sequence (P18825 whole entry): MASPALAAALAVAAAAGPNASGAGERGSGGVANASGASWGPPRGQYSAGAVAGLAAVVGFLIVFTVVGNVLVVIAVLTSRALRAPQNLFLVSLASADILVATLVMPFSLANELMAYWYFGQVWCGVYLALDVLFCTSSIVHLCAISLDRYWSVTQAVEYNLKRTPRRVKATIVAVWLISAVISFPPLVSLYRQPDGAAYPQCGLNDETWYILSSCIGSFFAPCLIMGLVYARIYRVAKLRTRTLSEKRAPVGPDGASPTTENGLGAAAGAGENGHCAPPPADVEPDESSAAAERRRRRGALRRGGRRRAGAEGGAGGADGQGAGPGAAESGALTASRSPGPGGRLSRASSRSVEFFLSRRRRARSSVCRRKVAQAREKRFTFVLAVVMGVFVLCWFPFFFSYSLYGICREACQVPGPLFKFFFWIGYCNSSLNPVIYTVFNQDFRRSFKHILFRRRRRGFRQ

[2] = DRUGMATRIX: Atrial Natriuretic Factor (ANF) radioligand binding (ligand: [125I] ANF (rat)); assay type: cell membranes, Cavia porcellus, Dunkin-Hartley, Adrenal gland, Membrane; conditions: Not Active = under 50% inhibition at 10 µM
[3] = target: Sigma non-opioid intracellular receptor 1 (Homo sapiens, UniProt Q99720); test: DRUGMATRIX: Sigma1 radioligand binding (ligand: [3H] Haloperidol); assay type: cell membranes, Jurkat, Membrane; conditions: Not Active = under 50% inhibition at 10 µM; for IC50: jurkat
Chain of Sigma non-opioid intracellular receptor 1 (Q99720 whole entry): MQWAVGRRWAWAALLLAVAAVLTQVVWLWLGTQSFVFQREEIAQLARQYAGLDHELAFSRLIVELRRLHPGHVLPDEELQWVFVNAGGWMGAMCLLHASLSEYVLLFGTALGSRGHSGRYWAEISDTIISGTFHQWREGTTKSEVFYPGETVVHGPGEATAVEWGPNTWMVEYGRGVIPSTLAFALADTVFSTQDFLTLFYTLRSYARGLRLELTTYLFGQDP

Substance-K receptor = target: T2, Substance-K receptor (Homo sapiens, UniProt P21452); assay type: cell membranes, CHO, Membrane; conditions: cho; also: in other assays of this panel Not Active means under 50% inhibition at 10 µM
T2 sequence (P21452 whole entry): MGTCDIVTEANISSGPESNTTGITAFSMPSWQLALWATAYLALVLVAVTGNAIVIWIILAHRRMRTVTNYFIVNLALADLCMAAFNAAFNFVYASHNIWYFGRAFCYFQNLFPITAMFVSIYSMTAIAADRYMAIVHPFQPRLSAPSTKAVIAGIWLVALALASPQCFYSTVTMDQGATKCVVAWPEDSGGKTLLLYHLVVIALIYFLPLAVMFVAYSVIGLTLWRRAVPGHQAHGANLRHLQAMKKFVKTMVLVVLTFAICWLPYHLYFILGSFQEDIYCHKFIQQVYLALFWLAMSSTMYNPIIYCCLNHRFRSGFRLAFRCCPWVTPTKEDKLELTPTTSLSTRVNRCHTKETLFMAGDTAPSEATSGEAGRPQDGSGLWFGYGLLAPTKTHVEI

[4] = target: C-C chemokine receptor type 2 (Homo sapiens, UniProt P41597); assay type: cell membranes, CHO-K1, Membrane; conditions: cho-k1; also: in other assays of this panel Not Active means under 50% inhibition at 10 µM
Chain of C-C chemokine receptor type 2 (P41597 whole entry): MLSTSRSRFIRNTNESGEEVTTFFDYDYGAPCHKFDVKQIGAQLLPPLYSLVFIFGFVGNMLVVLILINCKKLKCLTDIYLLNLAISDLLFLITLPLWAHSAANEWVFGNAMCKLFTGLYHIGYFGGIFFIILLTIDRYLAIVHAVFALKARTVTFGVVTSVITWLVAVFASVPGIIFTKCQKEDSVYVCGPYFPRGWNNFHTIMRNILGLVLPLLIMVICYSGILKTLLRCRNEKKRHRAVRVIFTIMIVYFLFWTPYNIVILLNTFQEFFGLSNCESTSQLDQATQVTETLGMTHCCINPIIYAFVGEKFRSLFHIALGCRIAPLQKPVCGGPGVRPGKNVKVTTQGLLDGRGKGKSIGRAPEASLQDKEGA

[5] = target: T3, C-C chemokine receptor type 4 (Homo sapiens, UniProt P51679); assay type: cell membranes, Membrane; conditions: chem-1; also: in other assays of this panel Not Active means under 50% inhibition at 10 µM
T3 sequence (P51679 whole entry): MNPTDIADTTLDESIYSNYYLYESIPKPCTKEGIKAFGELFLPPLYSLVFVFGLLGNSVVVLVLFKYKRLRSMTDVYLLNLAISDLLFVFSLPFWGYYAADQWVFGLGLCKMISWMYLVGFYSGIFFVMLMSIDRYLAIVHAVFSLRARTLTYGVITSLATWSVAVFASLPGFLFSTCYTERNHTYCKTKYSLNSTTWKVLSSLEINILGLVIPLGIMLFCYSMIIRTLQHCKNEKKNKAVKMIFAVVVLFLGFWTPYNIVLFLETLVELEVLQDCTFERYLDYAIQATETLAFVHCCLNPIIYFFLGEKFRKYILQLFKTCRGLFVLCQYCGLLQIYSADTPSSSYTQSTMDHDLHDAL

[6] = target: C-C chemokine receptor type 5 (Homo sapiens, UniProt P51681); assay type: cell membranes, Membrane; conditions: hek293; also: in other assays of this panel Not Active means under 50% inhibition at 10 µM
Chain of C-C chemokine receptor type 5 (P51681 whole entry): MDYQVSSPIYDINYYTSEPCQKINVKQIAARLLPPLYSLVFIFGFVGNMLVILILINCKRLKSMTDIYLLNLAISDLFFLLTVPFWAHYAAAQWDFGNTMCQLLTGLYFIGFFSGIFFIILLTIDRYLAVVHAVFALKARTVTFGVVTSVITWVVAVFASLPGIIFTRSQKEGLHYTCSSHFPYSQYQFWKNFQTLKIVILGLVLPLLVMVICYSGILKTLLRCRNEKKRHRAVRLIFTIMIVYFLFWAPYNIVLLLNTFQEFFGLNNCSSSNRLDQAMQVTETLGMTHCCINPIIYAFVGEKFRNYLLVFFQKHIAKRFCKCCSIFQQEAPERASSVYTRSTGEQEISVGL

[7] = target: T4, C-X-C chemokine receptor type 2 (Homo sapiens, UniProt P25025); assay type: cell membranes, Membrane; conditions: cho-k1; also: in other assays of this panel Not Active means under 50% inhibition at 10 µM
T4 sequence (P25025 whole entry): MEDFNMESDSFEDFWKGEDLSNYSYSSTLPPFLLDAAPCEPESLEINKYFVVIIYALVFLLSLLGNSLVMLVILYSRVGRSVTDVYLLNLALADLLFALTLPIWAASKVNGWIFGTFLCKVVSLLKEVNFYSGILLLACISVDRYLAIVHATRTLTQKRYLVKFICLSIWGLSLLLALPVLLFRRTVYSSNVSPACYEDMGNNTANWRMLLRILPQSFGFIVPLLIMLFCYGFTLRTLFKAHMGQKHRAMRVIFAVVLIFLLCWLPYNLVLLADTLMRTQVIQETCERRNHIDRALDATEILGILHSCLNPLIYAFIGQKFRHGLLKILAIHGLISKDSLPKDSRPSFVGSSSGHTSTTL

D(1A) dopamine receptor = D(1A) dopamine receptor (Homo sapiens, UniProt P21728); test: DRUGMATRIX: Dopamine D1 radioligand binding (ligand: [3H] SCH-23390); assay type: cell membranes, CHO, Membrane; conditions: cho; Not Active = under 50% inhibition at 10 µM
Chain of D(1A) dopamine receptor (P21728 whole entry): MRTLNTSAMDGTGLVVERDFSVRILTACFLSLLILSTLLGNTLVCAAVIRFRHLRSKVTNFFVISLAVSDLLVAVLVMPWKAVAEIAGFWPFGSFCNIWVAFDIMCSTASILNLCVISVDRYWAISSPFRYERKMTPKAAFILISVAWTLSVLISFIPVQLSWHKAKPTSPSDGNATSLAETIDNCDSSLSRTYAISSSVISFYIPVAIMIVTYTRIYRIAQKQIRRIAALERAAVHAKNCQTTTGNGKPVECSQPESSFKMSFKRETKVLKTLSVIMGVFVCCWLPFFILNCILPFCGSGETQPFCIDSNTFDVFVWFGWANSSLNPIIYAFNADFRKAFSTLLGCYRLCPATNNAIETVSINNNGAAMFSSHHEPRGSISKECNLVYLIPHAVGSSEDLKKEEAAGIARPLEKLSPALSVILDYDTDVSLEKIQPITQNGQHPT

[8] = DRUGMATRIX: Glutamate, Kainate radioligand binding (ligand: [3H] Kainic acid); assay type: cell membranes, Rattus norvegicus, Wistar, Brain, Membrane; conditions: Not Active = under 50% inhibition at 10 µM
[9] = DRUGMATRIX: Leukotriene, BLT (LTB4) radioligand binding (ligand: [3H]LTB4); assay type: cell membranes, Membrane; conditions: u-937; Not Active = under 50% inhibition at 10 µM
[10] = target: Delta-type opioid receptor (Homo sapiens, UniProt P41143); assay type: cell membranes, HEK293, Membrane; conditions: hek293; also: in other assays of this panel Not Active means under 50% inhibition at 10 µM
Chain of Delta-type opioid receptor (P41143 whole entry): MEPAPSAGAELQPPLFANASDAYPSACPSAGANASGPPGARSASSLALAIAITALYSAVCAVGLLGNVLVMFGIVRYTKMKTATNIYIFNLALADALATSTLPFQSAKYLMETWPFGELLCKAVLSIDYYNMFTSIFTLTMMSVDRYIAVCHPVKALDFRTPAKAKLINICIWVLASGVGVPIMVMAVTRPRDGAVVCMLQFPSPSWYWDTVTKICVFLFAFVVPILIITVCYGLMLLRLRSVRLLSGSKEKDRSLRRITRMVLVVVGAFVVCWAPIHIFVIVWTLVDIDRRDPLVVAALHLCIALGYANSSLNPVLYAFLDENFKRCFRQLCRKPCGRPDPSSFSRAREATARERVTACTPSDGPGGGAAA

[11] = target: Kappa-type opioid receptor (Homo sapiens, UniProt P41145); test: DRUGMATRIX: Opiate kappa (OP2, KOP) radioligand binding (ligand: [3H] Diprenorphine); assay type: cell membranes, HEK293, Membrane; conditions: hek293; Not Active = under 50% inhibition at 10 µM
Chain of Kappa-type opioid receptor (P41145 whole entry): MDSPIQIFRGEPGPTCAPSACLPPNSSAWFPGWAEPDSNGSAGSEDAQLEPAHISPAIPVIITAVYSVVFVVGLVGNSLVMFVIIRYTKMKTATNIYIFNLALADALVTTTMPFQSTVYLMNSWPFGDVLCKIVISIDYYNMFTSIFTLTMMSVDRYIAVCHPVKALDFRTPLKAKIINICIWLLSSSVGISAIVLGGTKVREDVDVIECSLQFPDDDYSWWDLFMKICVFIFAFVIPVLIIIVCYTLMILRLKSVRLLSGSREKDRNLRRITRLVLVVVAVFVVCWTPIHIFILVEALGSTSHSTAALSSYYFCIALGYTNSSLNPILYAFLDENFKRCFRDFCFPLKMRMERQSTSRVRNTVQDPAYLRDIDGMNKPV

[12] = target: cGMP-specific 3',5'-cyclic phosphodiesterase (Homo sapiens, UniProt O76074); test: DRUGMATRIX: Phosphodiesterase PDE5 enzyme inhibition (substrate: [3H]cGMP + cGMP); assay type: tissue-based, Platelet; conditions: platelet; Not Active = under 50% inhibition at 10 µM
[13] = target: Protein kinase C alpha type (Homo sapiens, UniProt P17252); assay type: cell-based; conditions: sf9
[14] = target: Mitogen-activated protein kinase 14 (Homo sapiens, UniProt Q16539); parameters: species or system Escherichia coli
Chain of Mitogen-activated protein kinase 14 (Q16539 whole entry): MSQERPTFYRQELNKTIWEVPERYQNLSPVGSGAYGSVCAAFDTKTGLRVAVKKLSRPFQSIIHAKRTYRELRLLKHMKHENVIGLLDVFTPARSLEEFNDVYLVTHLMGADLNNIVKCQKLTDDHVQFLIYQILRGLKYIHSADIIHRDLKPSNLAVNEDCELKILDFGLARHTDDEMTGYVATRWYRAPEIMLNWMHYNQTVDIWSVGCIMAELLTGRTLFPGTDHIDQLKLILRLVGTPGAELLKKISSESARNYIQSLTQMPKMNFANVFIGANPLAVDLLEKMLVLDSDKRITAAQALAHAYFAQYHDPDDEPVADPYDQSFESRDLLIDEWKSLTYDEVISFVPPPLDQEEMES

Structure (SMILES) | IC50 [1] | IC50 [2] | Ki [2] | IC50 [3] | IC50 (Substance-K receptor) | IC50 [4] | IC50 [5] | IC50 [6] | IC50 [7] | IC50 (D(1A) dopamine receptor) | IC50 [8] | Ki [8] | IC50 [9] | Ki [9] | IC50 [10] | IC50 [11] | IC50 [12] | IC50 [13] | IC50 [14] | other results
NNC(=O)c1ccncc1 [ISONIAZID] | Not Active | Not Active | Not Active | Not Active | Not Active | Not Active | Not Active | Not Active | Not Active | Not Active | Not Active | Not Active | Not Active | Not Active | Not Active | Not Active | Not Active | Not Active | Not Active | –
CC1=C(/C=C/C(C)=C/C=C/C(C)=C\C(=O)O)C(C)(C)CCC1 [ISOTRETINOIN] | Not Active | Not Active | Not Active | Not Active | Not Active | Not Active | Not Active | Not Active | Not Active | Not Active | Not Active | Not Active | Not Active | Not Active | Not Active | Not Active | Not Active | Not Active | – | pIC50 ([14]; read-out: IC50): 5.60
CO[C@@H]1[C@@H](O[C@@H]2O[C@H](C)[C@@H](O[C@H]3C[C@@](C)(O)[C@@H](OC(=O)CC(C)C)[C@H](C)O3)[C@H](N(C)C)[C@H]2O)[C@@H](CC=O)C[C@@H](C)[C@@H](O)/C=C/C=C/C[C@@H](C)OC(=O)C[C@H]1O [KITASAMYCIN] | Not Active | Not Active | Not Active | Not Active | Not Active | Not Active | Not Active | Not Active | Not Active | Not Active | Not Active | Not Active | Not Active | Not Active | Not Active | Not Active | Not Active | Not Active | Not Active | –
CC(CCc1ccccc1)NCC(O)c1ccc(O)c(C(N)=O)c1 (stereo not drawn) [LABETALOL] | Not Active | Not Active | Not Active | – | Not Active | Not Active | Not Active | Not Active | Not Active | Not Active | Not Active | Not Active | Not Active | Not Active | Not Active | Not Active | Not Active | Not Active | Not Active | pIC50 ([3]; read-out: IC50): 5.74; pKi ([3]; read-out: Ki): 6.12
Nc1nnc(-c2cccc(Cl)c2Cl)c(N)n1 [LAMOTRIGINE] | Not Active | Not Active | Not Active | Not Active | Not Active | Not Active | Not Active | Not Active | Not Active | Not Active | Not Active | Not Active | Not Active | Not Active | Not Active | Not Active | Not Active | Not Active | Not Active | –
CCC[C@@H]1C[C@@H](C(=O)N[C@@H]([C@H]2O[C@H](SC)[C@H](O)[C@@H](O)[C@H]2O)[C@@H](C)O)N(C)C1 [LINCOMYCIN] | Not Active | Not Active | Not Active | Not Active | Not Active | Not Active | Not Active | Not Active | Not Active | Not Active | Not Active | Not Active | Not Active | Not Active | Not Active | Not Active | Not Active | Not Active | Not Active | –
NCCCC[C@H](N[C@@H](CCc1ccccc1)C(=O)O)C(=O)N1CCC[C@H]1C(=O)O [LISINOPRIL ANHYDROUS] | Not Active | Not Active | Not Active | Not Active | Not Active | Not Active | Not Active | Not Active | Not Active | Not Active | Not Active | Not Active | Not Active | Not Active | Not Active | Not Active | Not Active | Not Active | Not Active | –
COS(C)(=O)=O [METHANESULFONIC ACID METHYL ESTER] | Not Active | Not Active | Not Active | Not Active | Not Active | Not Active | Not Active | Not Active | Not Active | Not Active | Not Active | Not Active | Not Active | Not Active | Not Active | Not Active | Not Active | Not Active | Not Active | –
